# According to patent US9624170B2, “4-(piperrazin-1-yl)-pyrrolidin-2-one compounds as monoacylglycerol lipase (MAGL) inhibitors” (TAKEDA PHARMACEUTICAL COMPANY LIMITED, priority 2013, dated 2017):
# Target: T1, human MAGL (His-hMAGL) (Homo sapiens, UniProt Q99685)
# T1 construct: made in house; host or cells: Escherichia coli BL21(DE3)
# T1 sequence (Q99685 1-303): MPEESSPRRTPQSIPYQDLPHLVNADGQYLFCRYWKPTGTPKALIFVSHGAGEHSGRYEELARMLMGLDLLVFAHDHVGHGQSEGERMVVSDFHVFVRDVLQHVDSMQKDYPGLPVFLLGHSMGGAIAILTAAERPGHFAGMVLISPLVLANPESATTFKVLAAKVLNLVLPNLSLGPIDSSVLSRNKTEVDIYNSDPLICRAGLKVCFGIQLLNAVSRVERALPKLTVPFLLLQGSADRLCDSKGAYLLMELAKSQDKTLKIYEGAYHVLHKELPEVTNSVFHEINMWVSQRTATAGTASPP
# Assay: Measurement of MAGL inhibitory activity by mass spectrometry
# Type: biochemical
# Details: 10 μM test compound; substrate 2-arachidonylglycerol, arachidonic acid by RapidFire-mass spectrometry
# Protocol: Thereafter, to each well was added 150 μM 2-arachidonylglycerol (Tocris Bioscience) by 5 μL, and the mixture was incubated at room temperature for 10 min. Then, 2% formic acid (Wako Pure Chemical Industries, Ltd.) was added by 10 μL to discontinue the reaction. Furthermore, acetonitrile (50 μL) containing 3 μM arachidonic acid-d8 (Cayman Chemical Company) was added and the mixture was stirred. The amount of arachidonic acid in the obtained enzyme reaction mixture was calculated by measuring by RapidFire-mass spectrometry and correcting by the amount of arachidonic acid-d8. High Throughput online solid phase extraction was performed using RapidFire 300TM system (Agilent Technologies, Inc.). […] The injection needle was washed with ultrapure water (500 millisecond) and acetonitrile (500 millisecond) to minimize carry-over. […] The RapidFire300 system was controlled by RapidFire UI software version 3.6 (Agilent Technologies, Inc.). The mass spectrometry of the resultant product was performed using […] triple quadrupole mass spectrometer (AB SCIEX) equipped with an electrospray ion sauce (Turbolon SprayTM) in a negative selected reaction monitoring (SRM) mode. The conditions of SRM are shown below. The parameters of the instrument were optimized as follows: capillary temperature 600° C., ion spray voltage -4.5 kV, collision gas 8, curtain gas 15 psi, ion source gas 1 60 psi, ion source gas 2 60 psi. The mass spectrometer was controlled by AnalystTM software version 1.5.1 (AB SCIEX). The peak area integration was analyzed using RapidFire integrator software version 3.6 (Agilent Technologies, Inc.). MAGL inhibitory rate (%) was calculated according to the following calculation formula.
row,inhibition at 10 µM,Compound
1,100%,"CCc1ccccc1-c1cccc(N2CC(N3CCN(C(=O)c4nccs4)CC3)CC2=O)c1 (stereo not shown) [Example 142, 1-(2′-ethylbiphenyl-3-yl)-4-(4-(1,3-thiazol-2-ylcarbonyl)piperazin-1-yl)pyrrolidin-2-one]"
2,102%,"Cc1cccc(-c2cccc(N3CC(N4CCN(C(=O)c5nccs5)CC4)CC3=O)c2)c1C (stereo not shown) [Example 143, 1-(2′,3′-dirnethylbiphenyl-3-yl)-4-(4-(1,3-thiazol-2-ylcarbonyl)piperazin-1-yl)pyrrolidin-2-one]"
3,101%,"Cc1ccc(C)c(-c2cccc(N3CC(N4CCN(C(=O)c5nccs5)CC4)CC3=O)c2)c1 (stereo not shown) [Example 144, 1-(2′,5′-dirnethylbiphenyl-3-yl)-4-(4-(1,3-thiazol-2-ylcarbonyl)piperazin-1-yl)pyrrolidin-2-one]"
4,102%,"O=C(c1nccs1)N1CCN(C2CC(=O)N(c3cccc(-c4c(F)cccc4F)c3)C2)CC1 (stereo not shown) [Example 145, 1-(2′,6′-Difluorobiphenyl-3-yl)-4-(4-(1,3-thiazol-2-ylcarbonyl)piperazin-1-yl)pyrrolidin-2-one]"
5,100%,"O=C(c1nccs1)N1CCN(C2CC(=O)N(c3cccc(-c4c(Cl)cccc4Cl)c3)C2)CC1 (stereo not shown) [Example 146, 1-(2′,6′-dichlorobiphenyl-3-yl)-4-(4-(1,3-thiazol-2-ylcarbonyl)piperazin-1-yl)pyrrolidin-2-one]"
6,95%,"O=C(c1nccs1)N1CCN(C2CC(=O)N(c3cccc(OC(F)(F)F)c3)C2)CC1 (stereo not shown) [Example 148, 4-(4-(1,3-thiazol-2-ylcarbonyl)piperazin-1-yl)-1-(3-(trifluoromethoxy)phenyl)pyrrolidin-2-one]"
7,96%,"Cc1ccc(-c2cccc(N3CC(N4CCN(C(=O)c5nccs5)CC4)CC3=O)c2)nc1 (stereo not shown) [Example 149, 1-(3-(5-Methylpyridin-2-yl)phenyl)-4-(4-(1,3-thiazol-2-ylcarbonyl)piperazin-1-yl)pyrrolidin-2-one]"
8,96%,"Cc1cccc(-c2cccc(N3CC(N4CCN(C(=O)c5nccs5)CC4)CC3=O)c2)n1 (stereo not shown) [Example 150, 1-(3-(6-Methylpyridin-2-yl)phenyl)-4-(4-(1,3-thiazol-2-ylcarbonyl)piperazin-1-yl)pyrrolidin-2-one]"
9,99%,"O=C(c1nccs1)N1CCN(C2CC(=O)N(c3cccc(-c4ncccc4Cl)c3)C2)CC1 (stereo not shown) [Example 151, 1-(3-(3-chloropyridin-2-yl)phenyl)-4-(4-(1,3-thiazol-2-ylcarbonyl)piperazin-1-yl)pyrrolidin-2-one]"
10,99%,"Cc1ccnc(-c2cccc(N3CC(N4CCN(C(=O)c5nccs5)CC4)CC3=O)c2)c1 (stereo not shown) [Example 152, 1-(3-(4-rnethylpyridin-2-yl)phenyl)-4-(4-(1,3-thiazol-2-ylcarbonyl)piperazin-1-yl)pyrrolidin-2-one]"
11,101%,"Cc1cccc(C#N)c1-c1cccc(N2CC(N3CCN(C(=O)c4nccs4)CC3)CC2=O)c1 (stereo not shown) [Example 154, 6-methyl-3′-(2-oxo-4-(4-(1,3-thiazol-2-ylcarbonyl)piperazin-1-yl)pyrrolidin-1-yl)biphenyl-2-carbonitrile]"
12,99%,"Cc1noc(C)c1-c1cccc(N2CC(N3CCN(C(=O)c4nccs4)CC3)CC2=O)c1 (stereo not shown) [Example 155, 1-(3-(3,5-dimethyl-1,2-oxazol-4-yl)phenyl)-4-(4-(1,3-thiazol-2-ylcarbonyl)piperazin-1-yl)pyrrolidin-2-one]"
13,100%,"CCn1nccc1-c1cccc(N2CC(N3CCN(C(=O)c4nccs4)CC3)CC2=O)c1 (stereo not shown) [Example 156, 1-(3-(1-ethyl-1H-pyrazol-5-yl)phenyl)-4-(4-(1,3-thiazol-2-ylcarbonyl)piperazin-1-yl)pyrrolidin-2-one]"
14,99%,"Cc1cc(-c2cccc(N3CC(N4CCN(C(=O)c5nccs5)CC4)CC3=O)c2)n(C)n1 (stereo not shown) [Example 157, 1-(3-(1,3-dimethyl-1H-pyrazol-5-yl)phenyl)-4-(4-(1,3-thiazol-2-ylcarbonyl)piperazin-1-yl)pyrrolidin-2-one]"
15,99%,"Cn1nc(C(F)(F)F)cc1-c1cccc(N2CC(N3CCN(C(=O)c4nccs4)CC3)CC2=O)c1 (stereo not shown) [Example 158, 1-(3-(1-methyl-3-(trifluoromethyl)-1H-pyrazol-5-yl)phenyl)-4-(4-(1,3-thiazol-2-ylcarbonyl)piperazin-1-yl)pyrrolidin-2-one]"
16,91%,"O=C(c1nccs1)N1CCN(C2CC(=O)N(c3ccccc3)C2)CC1 (stereo not shown) [Example 160, 1-phenyl-4-(4-(1,3-thiazol-2-ylcarbonyl)piperazin-1-yl)pyrrolidin-2-one]"
17,100%,"Cc1nc(C)c(-c2cccc(N3CC(N4CCN(C(=O)c5nccs5)CC4)CC3=O)c2)s1 (stereo not shown) [Example 161, 1-(3-(2,4-dimethyl-1,3-thiazol-5-yl)phenyl)-4-(4-(1,3-thiazol-2-ylcarbonyl)piperazin-1-yl)pyrrolidin-2-one]"
18,99%,"Cc1ccsc1-c1cccc(N2CC(N3CCN(C(=O)c4nccs4)CC3)CC2=O)c1 (stereo not shown) [Example 162, 1-(3-(3-methyl-2-thienyl)phenyl)-4-(4-(1,3-thiazol-2-ylcarbonyl)piperazin-1-yl)pyrrolidin-2-one]"
19,100%,"O=C(c1nccs1)N1CCN(C2CC(=O)N(c3cccc(-c4ncccc4C(F)(F)F)c3)C2)CC1 (stereo not shown) [Example 165, 4-(4-(1,3-thiazol-2-ylcarbonyl)piperazin-1-yl)-1-(3-(3-(trifluoromethyl)pyridin-2-yl)phenyl)pyrrolidin-2-one]"
20,99%,"O=C(c1ncco1)N1CCN(C2CC(=O)N(c3cccc(-c4ccccc4Cl)c3)C2)CC1 (stereo not shown) [Example 166, 1-(2′-chlorobiphenyl-3-yl)-4-(4-(1,3-oxazol-2-ylcarbonyl)piperazin-1-yl)pyrrolidin-2-one]"
21,94%,"Cc1ncccc1-c1cccc(N2CC(N3CCN(C(=O)c4ncco4)CC3)CC2=O)c1 (stereo not shown) [Example 167, 1-(3-(2-methylpyridin-3-yl)phenyl)-4-(4-(1,3-oxazol-2-ylcarbonyl)piperazin-1-yl)pyrrolidin-2-one]"
22,101%,"O=C(c1cscn1)N1CCN(C2CC(=O)N(c3cccc(-c4ccccc4Cl)c3)C2)CC1 (stereo not shown) [Example 168, 1-(2′-chlorobiphenyl-3-yl)-4-(4-(1,3-thiazol-4-ylcarbonyl)piperazin-1-yl)pyrrolidin-2-one]"
23,97%,"Cc1ncccc1-c1cccc(N2CC(N3CCN(C(=O)c4cscn4)CC3)CC2=O)c1 (stereo not shown) [Example 169, 1-(3-(2-methylpyridin-3-yl)phenyl)-4-(4-(1,3-thiazol-4-ylcarbonyl)piperazin-1-yl)pyrrolidin-2-one]"
24,98%,"O=C(c1nccs1)N1CCN(C2CC(=O)N(c3ccc(F)c(Br)c3)C2)CC1 (stereo not shown) [Example 170, 1-(3-bromo-4-fluorophenyl)-4-(4-(1,3-thiazol-2-ylcarbonyl)piperazin-1-yl)pyrrolidin-2-one]"
25,99%,"CC(C)n1nccc1-c1cccc(N2CC(N3CCN(C(=O)c4nccs4)CC3)CC2=O)c1 (stereo not shown) [Example 171, 1-(3-(1-isopropyl-1H-pyrazol-5-yl)phenyl)-4-(4-(1,3-thiazol-2-ylcarbonyl)piperazin-1-yl)pyrrolidin-2-one]"
26,100%,"Cc1ncccc1-c1cccc(N2CC(N3CCN(C(=O)c4nccs4)CC3)CC2=O)n1 (stereo not shown) [Example 174, 1-(2′-methyl-2,3′-bipyridin-6-yl)-4-(4-(1,3-thiazol-2-ylcarbonyl)piperazin-1-yl)pyrrolidin-2-one]"
27,100%,"Cc1ccccc1-c1ccc(N2CC(N3CCN(C(=O)c4nccs4)CC3)CC2=O)cc1 (stereo not shown) [Example 176, 1-(2′-methylbiphenyl-4-yl)-4-(4-(1,3-thiazol-2-ylcarbonyl)piperazin-1-yl)pyrrolidin-2-one]"
28,80%,"Cc1ccncc1-c1ccc(N2CC(N3CCN(C(=O)c4nccs4)CC3)CC2=O)cc1 (stereo not shown) [Example 177, 1-(4-(4-methylpyridin-3-yl)phenyl)-4-(4-(1,3-thiazol-2-ylcarbonyl)piperazin-1-yl)pyrrolidin-2-one]"
29,81%,"Cc1cnccc1-c1ccc(N2CC(N3CCN(C(=O)c4nccs4)CC3)CC2=O)cc1 (stereo not shown) [Example 178, 1-(4-(3-methylpyridin-4-yl)phenyl)-4-(4-(1,3-thiazol-2-ylcarbonyl)piperazin-1-yl)pyrrolidin-2-one]"

# Same assay, conditions: 10 μM test compound; substrate 2-arachidonylglycerol, arachidonic acid by RapidFire-mass spectrometry; 10 µM
row,% inhibition at 10 μM,Compound
1,83%,"Cc1cccc(-c2cccc(N3CC(N4CCN(C(=O)c5nccs5)CC4)CC3=O)c2)n1 (stereo not shown) [Example 150, 1-(3-(6-Methylpyridin-2-yl)phenyl)-4-(4-(1,3-thiazol-2-ylcarbonyl)piperazin-1-yl)pyrrolidin-2-one]"

# Same assay, conditions: MAGL inhibitory rate, test compound 10 μM, His-hMAGL, substrate 2-arachidonylglycerol, RapidFire-mass spectrometry
row,inhibition at 10 µM,Compound
1,98%,"O=C(c1nccs1)N1CCN(C2CC(=O)N(c3ccc(-c4ccccc4F)cc3)C2)CC1 (stereo not shown) [Example 179, 1-(2′-fluorobiphenyl-4-yl)-4-(4-(1,3-thiazol-2-ylcarbonyl)piperazin-1-yl)pyrrolidin-2-one]"
